Values joined by “and” are separate entries in the source; they are usually repeats but may differ in a detail not shown here. Equal entries are not always repeated. Toxic doses and inconclusive results are not listed.
System: CD2F1 mice, L1210 leukemia ip, survival T/C
Experiment: NCI In Vivo Anticancer Drug Screen. Data for tumor model L1210 Leukemia (intraperitoneal) in CD2F1 (CDF1) mice
Settings: higher = longer survival
Procedure, shortened: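 Mice carrying a transplanted tumor received test compound or vehicle alone. The value is the measurement in the treated group divided by that in the vehicle-treated control group.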

[1] = endpoint: mean survival time, dose: 400.0 mg/kg/injection, schedule: Q04DX002 (ip), vehicle: Klucel (hydroxypropylcellulose) (HPC)
[2] = endpoint: mean survival time, dose: 100.0 mg/kg/injection, schedule: Q01DX001 (ip), vehicle: saline with Tween-80
[3] = endpoint: mean survival time, dose: 200.0 mg/kg/injection, schedule: Q01DX001 (ip), vehicle: saline with Tween-80
[4] = endpoint: mean survival time, dose: 400.0 mg/kg/injection, schedule: Q01DX001 (ip), vehicle: saline with Tween-80
[5] = endpoint: mean survival time, dose: 100.0 mg/kg/injection, schedule: Q01DX009 (ip), vehicle: saline with Tween-80
[6] = endpoint: mean survival time, dose: 200.0 mg/kg/injection, schedule: Q01DX009 (ip), vehicle: saline with Tween-80
[7] = endpoint: mean survival time, dose: 400.0 mg/kg/injection, schedule: Q01DX009 (ip), vehicle: saline with Tween-80
[8] = endpoint: mean survival time, dose: 50.0 mg/kg/injection, schedule: Q04DX003 (ip), vehicle: other
[9] = endpoint: mean survival time, dose: 100.0 mg/kg/injection, schedule: Q04DX003 (ip), vehicle: other
[10] = endpoint: mean survival time, dose: 100.0 mg/kg/injection, schedule: Q04DX003 (ip), vehicle: saline with Tween-80
[11] = endpoint: mean survival time, dose: 200.0 mg/kg/injection, schedule: Q04DX003 (ip), vehicle: saline with Tween-80
[12] = endpoint: mean survival time, dose: 400.0 mg/kg/injection, schedule: Q04DX003 (ip), vehicle: saline with Tween-80
[13] = endpoint: mean survival time, dose: 25.0 mg/kg/injection, schedule: Q04DX002 (ip), vehicle: saline with Tween-80
[14] = endpoint: mean survival time, dose: 6.25 mg/kg/injection, schedule: Q01DX009 (ip), vehicle: saline with Tween-80
[15] = endpoint: mean survival time, dose: 12.5 mg/kg/injection, schedule: Q01DX009 (ip), vehicle: saline with Tween-80
[16] = endpoint: mean survival time, dose: 25.0 mg/kg/injection, schedule: Q04DX003 (ip), vehicle: saline with Tween-80

`Nc1cccc(/C=C/c2cccc([N+](=O)[O-])c2)c1` was tested, and the T/C (endpoint: mean survival time, dose: 100.0 mg/kg/injection, schedule: Q04DX002 (ip), vehicle: Klucel (hydroxypropylcellulose) (HPC)) was 98 % of control, the T/C (endpoint: mean survival time, dose: 200.0 mg/kg/injection, schedule: Q04DX002 (ip), vehicle: Klucel (hydroxypropylcellulose) (HPC)) was 103 % of control and the T/C [1] was 103 % of control.
In the case of `CNC(=S)NNC(=O)C(=O)NNC(=S)NC`, the T/C [2] is reported as 98 % of control, the T/C [3] is reported as 98 % of control and the T/C [4] is reported as 97 % of control.
For `Cc1ccc(S(=O)(=O)OCC2OCOC(COS(=O)(=O)c3ccc(C)cc3)C(O)C2O)cc1` (stereo not drawn), the T/C [5] was 101 % of control, the T/C [6] was 98 % of control and the T/C [7] was 96 % of control.
In the case of `Cc1c2ccncc2c(C)c2c1[nH]c1ccc(O)cc12`, the T/C (endpoint: mean survival time, dose: 16.75 mg/kg/injection, schedule: Q04DX003 (ip), vehicle: water) is reported as 116 % of control, the T/C [8] is reported as 166 % of control and the T/C (endpoint: mean survival time, dose: 75.0 mg/kg/injection, schedule: Q04DX003 (ip), vehicle: water) is reported as 111 % of control. For the same compound, the T/C [9] was 102 % of control and the T/C (endpoint: mean survival time, dose: 100.0 mg/kg/injection, schedule: Q04DX003 (ip), vehicle: water) was 94 % of control.
For `O=C(Nc1ccccc1)OCCCl`, the T/C [10] was 100 % of control, the T/C [11] was 97 % of control and the T/C [12] was 100 % of control.
For `COc1ccc2c(c1O)-c1cc(O)cc3c1C(C2)N(CCCl)CC3` (stereo not drawn), the T/C (endpoint: mean survival time, dose: 3.13 mg/kg/injection, schedule: Q04DX003 (ip), vehicle: water) was 104 % of control, the T/C (endpoint: mean survival time, dose: 6.25 mg/kg/injection, schedule: Q04DX003 (ip), vehicle: water) was 102 % of control and the T/C (endpoint: mean survival time, dose: 12.5 mg/kg/injection, schedule: Q04DX003 (ip), vehicle: water) was 105 % of control. The T/C (endpoint: mean survival time, dose: 25.0 mg/kg/injection, schedule: Q04DX003 (ip), vehicle: DMSO) was 102 % of control, the T/C (endpoint: mean survival time, dose: 25.0 mg/kg/injection, schedule: Q04DX003 (ip), vehicle: water) was 100 % of control and the T/C (endpoint: mean survival time, dose: 50.0 mg/kg/injection, schedule: Q04DX003 (ip), vehicle: water) was 88 % of control.
For `CCCCCOc1cc(C(C)=O)cc(OC)c1OC(=O)c1cc([N+](=O)[O-])cc([N+](=O)[O-])c1`, the T/C [2] was 112 % of control, the T/C [3] was 90 % of control and the T/C [4] was 93 % of control.
With `NC(CSS(=O)(=O)O)=NCC1CCCCC1` the T/C (endpoint: mean survival time, dose: 6.25 mg/kg/injection, schedule: Q04DX002 (ip), vehicle: saline with Tween-80) was 101 % of control and 107 % of control, the T/C (endpoint: mean survival time, dose: 12.5 mg/kg/injection, schedule: Q04DX002 (ip), vehicle: saline with Tween-80) was 104 % of control and 112 % of control and the T/C [13] was 96 % of control.
For `Cc1cc2c(Cl)ncnc2[nH]1`, the T/C (endpoint: median survival time, dose: 25.0 mg/kg/injection, schedule: Q01DX005 (ip), vehicle: saline) was 95 % of control, the T/C (endpoint: median survival time, dose: 50.0 mg/kg/injection, schedule: Q01DX005 (ip), vehicle: saline) was 90 % of control and the T/C (endpoint: median survival time, dose: 100.0 mg/kg/injection, schedule: Q01DX005 (ip), vehicle: saline) was 101 % of control.
`CCNC1(c2ccccc2)CCCCC1` was tested, and the T/C (endpoint: mean survival time, dose: 25.0 mg/kg/injection, schedule: Q04DX003 (ip), vehicle: saline) was 105 % of control.
`C[n+]1ccn(Cc2ccc([N+](=O)[O-])cc2)c1` was tested, and the T/C (endpoint: mean survival time, dose: 100.0 mg/kg/injection, schedule: Q01DX001 (ip), vehicle: saline) was 100 % of control and the T/C (endpoint: mean survival time, dose: 200.0 mg/kg/injection, schedule: Q01DX001 (ip), vehicle: saline) was 101 % of control.
For `CCN(CC)CCOc1ccc(/C(=C(\Cl)c2ccccc2)c2ccccc2)cc1`, the T/C (endpoint: mean survival time, dose: 3.12 mg/kg/injection, schedule: Q04DX003 (ip), vehicle: saline with Tween-80) was 100 % of control, the T/C (endpoint: mean survival time, dose: 3.13 mg/kg/injection, schedule: Q01DX009 (ip), vehicle: saline with Tween-80) was 104 % of control and the T/C [14] was 102 % of control. For the same compound, the T/C (endpoint: mean survival time, dose: 6.25 mg/kg/injection, schedule: Q04DX003 (ip), vehicle: saline with Tween-80) was 94 % of control, the T/C [15] was 105 % of control and the T/C (endpoint: mean survival time, dose: 12.5 mg/kg/injection, schedule: Q04DX003 (ip), vehicle: saline with Tween-80) was 97 % of control. The T/C (endpoint: mean survival time, dose: 25.0 mg/kg/injection, schedule: Q01DX009 (ip), vehicle: saline with Tween-80) was 107 % of control, the T/C [16] was 97 % of control and the T/C (endpoint: mean survival time, dose: 50.0 mg/kg/injection, schedule: Q01DX009 (ip), vehicle: saline with Tween-80) was 91 % of control. The T/C (endpoint: mean survival time, dose: 50.0 mg/kg/injection, schedule: Q04DX003 (ip), vehicle: saline with Tween-80) was 100 % of control and the T/C [10] was 105 % of control.
`NC(=O)c1nc(Br)n(C2OC(CO)C(O)C2O)c1N` (stereo not drawn) was tested, and the T/C (endpoint: median survival time, dose: 44.0 mg/kg/injection, schedule: Q01DX005 (ip), vehicle: saline) was 104 % of control, the T/C (endpoint: median survival time, dose: 88.0 mg/kg/injection, schedule: Q01DX005 (ip), vehicle: saline) was 101 % of control and the T/C (endpoint: median survival time, dose: 175.9 mg/kg/injection, schedule: Q01DX005 (ip), vehicle: saline) was 102 % of control.
For `[Cl][Pt][Cl].c1ccc([SeH]c2ccccc2)cc1.c1ccc([SeH]c2ccccc2)cc1`, the T/C (endpoint: mean survival time, dose: 25.0 mg/kg/injection, schedule: Q04DX003 (ip), vehicle: other) was 97 % of control, the T/C [8] was 102 % of control and the T/C [9] was 98 % of control. The T/C (endpoint: mean survival time, dose: 200.0 mg/kg/injection, schedule: Q04DX003 (ip), vehicle: other) was 101 % of control and the T/C (endpoint: mean survival time, dose: 400.0 mg/kg/injection, schedule: Q04DX003 (ip), vehicle: other) was 100 % of control.
In the case of `Cc1nc2ccc(N)cc2[nH]1`, the T/C (endpoint: mean survival time, dose: 50.0 mg/kg/injection, schedule: Q01DX009 (ip), vehicle: saline) is reported as 95 % of control, the T/C (endpoint: mean survival time, dose: 100.0 mg/kg/injection, schedule: Q01DX009 (ip), vehicle: saline) is reported as 113 % of control and the T/C (endpoint: mean survival time, dose: 200.0 mg/kg/injection, schedule: Q01DX009 (ip), vehicle: saline) is reported as 95 % of control.
With `O[C@H](CN1CC1)[C@@H](O)CN1CC1` the T/C (endpoint: mean survival time, dose: 0.25 mg/kg/injection, schedule: Q01DX007 (ip), vehicle: saline) was 150 % of control, the T/C (endpoint: mean survival time, dose: 0.25 mg/kg/injection, schedule: Q01DX009 (ip), vehicle: saline) was 170 % of control and 177 % of control and 178 % of control and the T/C (endpoint: mean survival time, dose: 0.5 mg/kg/injection, schedule: Q01DX007 (ip), vehicle: saline) was 192 % of control. The T/C (endpoint: mean survival time, dose: 0.5 mg/kg/injection, schedule: Q01DX009 (ip), vehicle: saline) was 165 % of control and 197 % of control and 205 % of control, the T/C (endpoint: mean survival time, dose: 0.5 mg/kg/injection, schedule: Q03DX003 (ip), vehicle: saline) was 166 % of control and the T/C (endpoint: mean survival time, dose: 0.5 mg/kg/injection, schedule: Q04DX003 (ip), vehicle: saline) was 164 % of control. For the same compound, the T/C (endpoint: mean survival time, dose: 1.0 mg/kg/injection, schedule: Q01DX007 (ip), vehicle: saline) was 94 % of control, the T/C (endpoint: mean survival time, dose: 1.0 mg/kg/injection, schedule: Q01DX009 (ip), vehicle: saline) was 116 % of control and 95 % of control and the T/C (endpoint: mean survival time, dose: 1.0 mg/kg/injection, schedule: Q03DX003 (ip), vehicle: saline) was 202 % of control. The T/C (endpoint: mean survival time, dose: 1.0 mg/kg/injection, schedule: Q04DX003 (ip), vehicle: saline) was 184 % of control.
For `Nc1ncnc(N)c1NC(=O)c1ccc(CCCCc2ccccc2)cc1`, the T/C [10] was 104 % of control, the T/C [11] was 96 % of control and the T/C [12] was 92 % of control.
With `Nc1ccc(CSc2ccc(Cl)cc2)cc1` the T/C [1] was 89 % of control.
`O=C1c2ccccc2C(=O)c2c(NCCCCCO)ccc(NCCCCCO)c21` was tested, and the T/C (endpoint: mean survival time, dose: 16.0 mg/kg/injection, schedule: Q01DX009 (ip), vehicle: Klucel (hydroxypropylcellulose) (HPC)) was 102 % of control, the T/C (endpoint: mean survival time, dose: 32.0 mg/kg/injection, schedule: Q01DX009 (ip), vehicle: Klucel (hydroxypropylcellulose) (HPC)) was 93 % of control and the T/C (endpoint: mean survival time, dose: 64.0 mg/kg/injection, schedule: Q01DX009 (ip), vehicle: Klucel (hydroxypropylcellulose) (HPC)) was 96 % of control. The T/C (endpoint: mean survival time, dose: 128.0 mg/kg/injection, schedule: Q01DX009 (ip), vehicle: Klucel (hydroxypropylcellulose) (HPC)) was 96 % of control and the T/C (endpoint: mean survival time, dose: 256.0 mg/kg/injection, schedule: Q01DX009 (ip), vehicle: Klucel (hydroxypropylcellulose) (HPC)) was 104 % of control.
In the case of `O=C1OC(c2ccc([N+](=O)[O-])cc2)=N/C1=C\c1ccc2c(c1)OCO2`, the T/C [13] is reported as 95 % of control, the T/C (endpoint: mean survival time, dose: 50.0 mg/kg/injection, schedule: Q04DX002 (ip), vehicle: saline with Tween-80) is reported as 98 % of control and the T/C (endpoint: mean survival time, dose: 100.0 mg/kg/injection, schedule: Q04DX002 (ip), vehicle: saline with Tween-80) is reported as 91 % of control.
`CN(C)c1ccc(NS(=O)(=O)c2ccccc2)cc1` was tested, and the T/C [2] was 103 % of control, the T/C [3] was 98 % of control and the T/C [4] was 97 % of control.
For `C[n+]1c(/C=C/c2ccc([N+](=O)[O-])cc2)ccc2ccccc21`, the T/C [14] was 98 % of control, the T/C [15] was 102 % of control and the T/C [16] was 96 % of control.
For `NC(=S)N/N=C/c1ccccc1O`, the T/C [5] was 102 % of control, the T/C [6] was 91 % of control and the T/C [7] was 88 % of control.

From PubChem BioAssay AID256 (DTP/NCI, 2004)
